What is called melting point is the temperature, or range, at which the solid turns liquid.

Here are results for 28 molecules from patent US20050004134A1, “Thiazole derivative and pharmaceutical use thereof” (priority 2001, published 2005).

The structures appear in SMILES notation.

The molecule `CC(C)n1nc(-c2sc(C(=O)NCc3ccccn3)nc2-c2ccccc2F)ccc1=O` [Example 207, 4-(2-Fluorophenyl)-5-(1-isopropyl-6-oxo-1,6-dihydro-3-pyridazinyl)-N-(2-pyridinylmethyl)-1,3-thiazole-2-carboxamide] had a melting point of 190 to 191 °C. For `CCCCCCNc1nc(-c2ccccc2)c(-c2ccc(=O)n(C(C)C)n2)s1` [Example 14, 6-[2-(hexylamino)-4-phenyl-1,3-thiazol-5-yl]-2-isopropyl-3(2H)-pyridazinone], the melting point was 90 to 92 °C. `CC(C)n1nc(-c2sc(NC(=O)Cn3ccnc3)nc2-c2ccccc2)ccc1=O` [Example 102, 2-(1H-Imidazol-1-yl)-N-[5-(1-isopropyl-6-oxo-1,6-dihydro-3-pyridazinyl)-4-phenyl-1,3-thiazol-2-yl]acetamide] displayed a melting point of 160 to 161 °C. With `CC(C)n1nc(-c2sc(Nc3cccc4ccccc34)nc2-c2ccccc2)ccc1=O` [Example 72, 2-Isopropyl-6-[2-(1-naphthylamino)-4-phenyl-1,3-thiazol-5-yl]-3(2H)-pyridazinone], the melting point was 239 to 240 °C. The value for `CC(C)n1nc(-c2sc(NC(=O)CNCCCN3CCOCC3)nc2-c2ccccc2)ccc1=O.Cl.Cl` was 211 to 213 °C. As for `Cc1cnc(CNC(=O)c2nc(-c3ccc(F)cc3)c(-c3ccc(=O)n(C(C)C)n3)s2)cn1` [Example 221, 4-(4-Fluorophenyl)-5-(1-isopropyl-6-oxo-1,6-dihydro-3-pyridazinyl)-N-[(5-methyl-2-pyrazinyl)methyl]-1,3-thiazole-2-carboxamide], the figure is 187.5 to 188.5 °C. Regarding `COc1ccc(C(=O)Nc2nc(-c3ccccc3)c(-c3ccc(=O)n(C(C)C)n3)s2)cc1` [Example 45, N-[5-(1-Isopropyl-6-oxo-1,6-dihydro-3-pyridazinyl)-4-phenyl-1,3-thiazol-2-yl]-4-methoxybenzamide], the melting point was 219 to 221 °C.

In turn, `CC(C)n1nc(-c2sc(NC(=O)CNCCCN3CCCC3=O)nc2-c2ccccc2)ccc1=O.Cl` registered a melting point of 207 to 209 °C. On to `CCn1nc(-c2sc(C(=O)NCc3ccccn3)nc2-c2ccccc2)ccc1=O` [Example 202, 5-(1-Ethyl-6-oxo-1,6-dihydro-3-pyridazinyl)-4-phenyl-N-(2-pyridinylmethyl)-1,3-thiazole-2-carboxamide], for which the melting point lay in the range of 169 to 170.5 °C.

For the molecule `CCN(CC)CCNCc1ccc(C(=O)Nc2nc(-c3ccccc3)c(-c3ccc(=O)n(C(C)C)n3)s2)cc1` [Example 142, 4-({[2-(Diethylamino)ethyl]amino}methyl)-N-[5-(1-isopropyl-6-oxo-1,6-dihydro-3-pyridazinyl)-4-phenyl-1,3-thiazol-2-yl]benzamide], the melting point was 158 to 160 °C. Molecule `CC(C)n1nc(-c2sc(C(=O)NCc3ccccn3)nc2-c2ccccc2)ccc1=O` [Example 210, 5-(1-isopropyl-6-oxo-1,6-dihydro-3-pyridazinyl)-4-phenyl-N-(2-pyridinylmethyl)-1,3-thiazole-2-carboxamide] came in with a melting point of 176.5 to 177.5 °C.

`CC(C)n1nc(-c2sc(NC(=O)CN(C)C)nc2-c2ccccc2)ccc1=O.Cl` had a melting point of 232 to 234 °C. In turn, `O=c1ccc(-c2sc(NCc3ccccc3)nc2-c2ccccc2)nn1Cc1ccccc1` [Example 92, 2-benzyl-6-[2-(benzylamino)-4-phenyl-1,3-thiazol-5-yl]-3(2H)-pyridazinone] yielded a melting point of 163.5 to 165 °C. The value for `NC(=O)c1nc(-c2ccccc2)c(-c2ccc(=O)[nH]n2)s1` [Example 158, 5-(6-oxo-1,6-dihydro-3-pyridazinyl)-4-phenyl-1,3-thiazole-2-carboxamide] was greater than 250 °C. Molecule `CC(C)n1nc(-c2sc(NC(=O)Oc3ccccc3)nc2-c2ccccc2)ccc1=O` registered a melting point of 205 to 207 °C. On to `CC(C)n1nc(-c2sc(C(=O)NC3CC3)nc2-c2cccc(Cl)c2)ccc1=O` [Example 199, 4-(3-chlorophenyl)-N-cyclopropyl-5-(1-isopropyl-6-oxo-1,6-dihydro-3-pyridazinyl)-1,3-thiazole-2-carboxamide], for which the melting point was 118.5 to 119.5 °C. Consider `CC(C)n1nc(-c2sc(NC(=O)c3ccccc3F)nc2-c2ccccc2)ccc1=O` [Example 37, 2-Fluoro-N-[5-(1-isopropyl-6-oxo-1,6-dihydro-3-pyridazinyl)-4-phenyl-1,3-thiazol-2-yl]benzamide], for which the melting point lay within 251 to 252 °C. Molecule `CCCNC(=O)c1nc(-c2ccccc2)c(-c2ccc(=O)n(Cc3ccccc3)n2)s1` [Example 174, 5-(1-benzyl-6-oxo-1,6-dihydro-3-pyridazinyl)-4-phenyl-N-propyl-1,3-thiazole-2-carboxamide] had a melting point of 120 to 121 °C. `O=C(NC1CC1)c1nc(-c2ccccc2)c(-c2ccc(=O)[nH]n2)s1` [Example 188, N-cyclopropyl-5-(6-oxo-1,6-dihydro-3-pyridazinyl)-4-phenyl-1,3-thiazole-2-carboxamide] showed a melting point greater than 250 °C.

`CC(C)n1nc(-c2sc(NC(=O)CNCCO)nc2-c2ccccc2)ccc1=O` [Example 117, 2-[(2-Hydroxyethyl)amino]-N-[5-(1-isopropyl-6-oxo-1,6-dihydro-3-pyridazinyl)-4-phenyl-1,3-thiazol-2-yl]acetamide]: the melting point fell in the range of 142 to 144 °C. With `CC(C)n1nc(-c2sc(NC(=O)N3CCOCC3)nc2-c2ccccc2)ccc1=O` [Example 32, N-[5-(1-Isopropyl-6-oxo-1,6-dihydro-3-pyridazinyl)-4-phenyl-1,3-thiazol-2-yl]-4-morpholinecarboxamide], the melting point is 231 to 232 °C. As for `CC(C)n1nc(-c2sc(NC(=O)COc3ccccc3)nc2-c2ccccc2)ccc1=O` [Example 8, N-[5-(1-Isopropyl-6-oxo-1,6-dihydro-3-pyridazinyl)-4-phenyl-1,3-thiazol-2-yl]-2-phenoxyacetamide], the melting point lay within 243 to 244 °C.

Consider `CC(C)n1nc(-c2sc(NC(=O)CN3CCOCC3)nc2-c2ccccc2)ccc1=O.Cl`, for which the melting point lay within 252 to 253 °C. For the molecule `COCCNCC(=O)Nc1nc(-c2ccccc2)c(-c2ccc(=O)n(C(C)C)n2)s1.Cl`, the melting point was 252 to 253 °C. `COCCn1nc(-c2sc(N)nc2-c2ccccc2)ccc1=O` [Example 87, 6-(2-Amino-4-phenyl-1,3-thiazol-5-yl)-2-(2-methoxyethyl)-3(2H)-pyridazinone] showed a melting point of 208 to 209.5 °C. With `O=C(NC1CC1)c1nc(-c2ccccc2)c(-c2ccc(=O)n(Cc3ccccc3)n2)s1` [Example 194, 5-(1-benzyl-6-oxo-1,6-dihydro-3-pyridazinyl)-N-cyclopropyl-4-phenyl-1,3-thiazole-2-carboxamide], the melting point is 151 to 152.5 °C. As for `CC(C)n1nc(-c2sc(NC(=O)c3ccccc3)nc2-c2ccccc2)ccc1=O` [Example 2, N-[5-(1-isopropyl-6-oxo-1,6-dihydro-3-pyridazinyl)-4-phenyl-1,3-thiazol-2-yl]-benzamide], the melting point lay in the range of 126 to 129 °C.

The molecule `CCn1nc(-c2sc(C(N)=O)nc2-c2ccccc2)ccc1=O` [Example 160, 5-(1-Ethyl-6-oxo-1,6-dihydro-3-pyridazinyl)-4-phenyl-1,3-thiazole-2-carboxamide] came in with a melting point of 231 to 232.5 °C.
